The record followed here is patent publication US20180148418A1, “AMIDO-SUBSTITUTED CYCLOHEXANE DERIVATIVES” (Bayer Pharma Aktiengesellschaft, priority 2015, published 2018).

Assay [1] relates to wildtype Wnt signaling cascade. Nature of the assay: HEK293 TOP assay (Super TopFlash luciferase reporter, Wnt-3a stimulated). The class given is cell-based. The settings on record: Homo sapiens, HEK293, 16 h, HEK293 TOP reporter cells, Wnt3a at EC50, 16 hours. The method in brief:
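Compound series (50 μM down to 15 nM, 3.16-fold) diluted from DMSO 50-fold into CAFTY buffer, pH 7.4, 2 mM Ca^2+, 0.01% BSA, applied to Wnt-3a-stimulated HEK293 TopFlash and FOP reporter lines in parallel. Cells seeded 10000/well 24 h before; luciferase signal measured.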
(In a reporter assay the amount or activity of a reporter protein is the signal.)

The target of another assay is T1, TNKS1 (Homo sapiens, UniProt O95271).
T1 construct: purchased BPS Bioscience, San Diego, USA 80579 (TNKS1 Histone Ribosylation Assay Kit)
T1 sequence (O95271 1-1327): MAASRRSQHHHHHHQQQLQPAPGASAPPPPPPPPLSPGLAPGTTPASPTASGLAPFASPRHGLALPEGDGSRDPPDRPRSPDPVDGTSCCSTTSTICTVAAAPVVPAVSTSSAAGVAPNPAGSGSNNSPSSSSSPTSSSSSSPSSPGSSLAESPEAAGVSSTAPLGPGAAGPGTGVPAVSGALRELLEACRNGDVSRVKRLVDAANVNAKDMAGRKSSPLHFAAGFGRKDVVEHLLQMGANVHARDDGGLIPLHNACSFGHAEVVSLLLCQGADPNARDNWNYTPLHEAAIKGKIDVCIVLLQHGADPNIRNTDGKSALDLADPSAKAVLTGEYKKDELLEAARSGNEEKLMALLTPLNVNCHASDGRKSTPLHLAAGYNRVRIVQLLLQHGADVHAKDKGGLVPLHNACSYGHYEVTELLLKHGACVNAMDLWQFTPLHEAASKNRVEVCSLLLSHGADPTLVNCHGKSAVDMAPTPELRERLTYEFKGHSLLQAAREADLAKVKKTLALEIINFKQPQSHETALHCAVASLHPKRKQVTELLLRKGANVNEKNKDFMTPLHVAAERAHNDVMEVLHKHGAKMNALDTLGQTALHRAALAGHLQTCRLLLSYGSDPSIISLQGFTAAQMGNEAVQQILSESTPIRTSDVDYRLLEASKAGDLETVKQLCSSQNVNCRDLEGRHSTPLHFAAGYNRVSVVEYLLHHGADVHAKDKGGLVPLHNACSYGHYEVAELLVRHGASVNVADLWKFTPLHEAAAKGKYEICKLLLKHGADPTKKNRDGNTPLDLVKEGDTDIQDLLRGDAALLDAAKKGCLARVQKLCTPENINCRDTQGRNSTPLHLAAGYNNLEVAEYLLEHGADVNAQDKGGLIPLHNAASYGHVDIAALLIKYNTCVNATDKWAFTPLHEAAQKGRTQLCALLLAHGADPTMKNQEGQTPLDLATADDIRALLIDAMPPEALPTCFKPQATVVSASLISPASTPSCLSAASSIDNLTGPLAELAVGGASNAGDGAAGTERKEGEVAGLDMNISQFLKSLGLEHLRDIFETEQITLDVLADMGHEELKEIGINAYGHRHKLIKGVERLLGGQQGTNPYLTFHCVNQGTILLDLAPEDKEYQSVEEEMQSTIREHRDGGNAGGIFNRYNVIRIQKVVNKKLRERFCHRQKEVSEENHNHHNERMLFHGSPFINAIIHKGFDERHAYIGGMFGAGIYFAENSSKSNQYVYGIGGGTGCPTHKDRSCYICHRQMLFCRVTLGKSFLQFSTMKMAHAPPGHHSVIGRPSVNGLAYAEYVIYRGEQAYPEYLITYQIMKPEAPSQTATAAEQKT
Nature of the assay: TNKS1 Assay B (auto-parsylation, [3H]-NAD+ SPA). The class given is biochemical. The note with it: 6 nM TNKS1, auto-parsylation, over night at room temperature.

Structures can show the parent of a compound that is named as a salt.

For the compound `O=C(N[C@H]1CC[C@H](C(=O)Nc2ccc(F)cc2Cl)CC1)c1cnn2ccccc12` [Example 205, N-{trans-4-[(2-chloro-4-fluorophenyl)carbamoyl]cyclohexyl}pyrazolo[1,5-a]pyridine-3-carboxamide], the 50% inhibitory concentration (IC50) in assay [1] was 500 nM; against TNKS1, over 10000 nM.

Take `O=C(N[C@H]1CC[C@H](C(=O)Nc2ccc(F)cc2Cl)CC1)c1cnc2ccccn12` [Example 206, N-{trans-4-[(2-chloro-4-fluorophenyl)carbamoyl]cyclohexyl}imidazo[1,2-a]pyridine-3-carboxamide]: the IC50 in assay [1] is 500 nM; at TNKS1, over 10000 nM.

For `Cc1cc(C)n2ncc(C(=O)N[C@H]3CC[C@]4(CCN(c5ccc(F)cc5)C4=O)CC3)c2n1` [Example 208, N-[(cis)-2-(4-fluorophenyl)-1-oxo-2-azaspiro[4.5]dec-8-yl]-5,7-dimethyl pyrazolo[1,5-a]pyrimidine-3-carboxamide], the 50% inhibitory concentration (IC50) in assay [1] was 660 nM; on TNKS1 it was 5600 nM.

As to `O=C(N[C@H]1CC[C@@]2(CCN(c3ccc(F)cc3)C2=O)CC1)c1cnn2cccnc12` [Example 209, N-[(trans)-2-(4-fluorophenyl)-1-oxo-2-azaspiro[4.5]dec-8-yl]pyrazolo[1,5-a]pyrimidine-3-carboxamide], the IC50 in assay [1] stood at 99 nM; against TNKS1 it was 1200 nM.

For `Cc1cnc2c(C(=O)N[C@H]3CC[C@@]4(CCN(c5ccc(F)cc5)C4=O)CC3)cnn2c1` [Example 210, N-[(trans)-2-(4-fluorophenyl)-1-oxo-2-azaspiro[4.5]dec-8-yl]-6-methylpyrazolo[1,5-a]pyrimidine-3-carboxamide], the half-maximal inhibitory concentration (IC50) in assay [1] turned out to be 280 nM; against TNKS1, 390 nM.

With `Cc1cc(C)n2ncc(C(=O)N[C@H]3CC[C@@]4(CCN(c5ccc(F)cc5)C4=O)CC3)c2n1` [Example 211, N-[(trans)-2-(4-fluorophenyl)-1-oxo-2-azaspiro[4.5]dec-8-yl]-5,7-di methyl pyrazolo[1,5-a]pyrimidine-3-carboxamide], the IC50 in assay [1] came out at 270 nM; on TNKS1, 430 nM.

`CNC(=O)c1[nH]cnc1C(=O)N[C@H]1CC[C@@]2(CCN(c3ccc(F)cc3)C2=O)CC1` [Example 212, N^4-[(trans)-2-(4-fluorophenyl)-1-oxo-2-azaspiro[4.5]dec-8-yl]-N^5-methyl-1H-imidazole-4,5-dicarboxamide]: the half-maximal inhibitory concentration (IC50) is 88 nM in assay [1] and 560 nM at TNKS1.

Take `CCNC(=O)c1[nH]cnc1C(=O)N[C@H]1CC[C@@]2(CCN(c3ccc(F)cc3)C2=O)CC1` [Example 213, N^5-ethyl-N^4-[(trans)-2-(4-fluorophenyl)-1-oxo-2-azaspiro[4.5]dec-8-yl]-1H-imidazole-4,5-dicarboxamide]: the 50% inhibitory concentration (IC50) amounted to 140 nM in assay [1] and 340 nM against TNKS1.

Turning to `O=C(N[C@H]1CC[C@@]2(CCN(c3ccc(F)cc3Cl)C2=O)CC1)c1cnn2cc(CCO)cnc12` [Example 214, N-[(trans)-2-(2-chloro-4-fluorophenyl)-1-oxo-2-azaspiro[4.5]dec-8-yl]-6-(2-hydroxyethyl)pyrazolo[1,5-a]pyrimidine-3-carboxamide], the IC50 was found to be 16 nM in assay [1] and 12 nM against TNKS1.

As to `CNc1ccn2ncc(C(=O)N[C@H]3CC[C@@]4(CCN(c5ccc(F)cc5Cl)C4=O)CC3)c2n1` [Example 215, N-[(trans)-2-(2-chloro-4-fluorophenyl)-1-oxo-2-azaspiro[4.5]dec-8-yl]-5-(methylamino)pyrazolo[1,5-a]pyrimidine-3-carboxamide], the 50% inhibitory concentration (IC50) came to 5.5 nM in assay [1] and 7.5 nM against TNKS1.

Consider `Cc1nn2cccnc2c1C(=O)N[C@H]1CC[C@@]2(CCN(c3ccc(F)cc3Cl)C2=O)CC1` [Example 216, N-[(trans)-2-(2-chloro-4-fluorophenyl)-1-oxo-2-azaspiro[4.5]dec-8-yl]-2-methylpyrazolo[1,5-a]pyrimidine-3-carboxamide], for which the values for the half-inhibitory concentration (IC50) (in assay [1]; on TNKS1) were 71 nM and 570 nM, respectively.

Consider `CN(C)c1ccn2ncc(C(=O)N[C@H]3CC[C@@]4(CCN(c5ccc(F)cc5Cl)C4=O)CC3)c2n1` [Example 217, N-[(trans)-2-(2-chloro-4-fluorophenyl)-1-oxo-2-azaspiro[4.5]dec-8-yl]-5-(dimethylamino)pyrazolo[1,5-a]pyrimidine-3-carboxamide], for which the figures for the IC50 (in assay [1]; at TNKS1) were 3.7 nM and 6.1 nM, respectively.

As for `COc1ccn2ncc(C(=O)N[C@H]3CC[C@@]4(CCN(c5ccc(F)cc5Cl)C4=O)CC3)c2n1` [Example 218, N-[(trans)-2-(2-chloro-4-fluorophenyl)-1-oxo-2-azaspiro[4.5]dec-8-yl]-5-methoxypyrazolo[1,5-a]pyrimidine-3-carboxamide], the results for the IC50 (in assay [1]; on TNKS1) were 16 nM and 14 nM, respectively.

Consider `Cc1ccn2ncc(C(=O)N[C@H]3CC[C@@]4(CCN(c5ccc(F)cc5Cl)C4=O)CC3)c2n1` [Example 221, N-[(trans)-2-(2-chloro-4-fluorophenyl)-1-oxo-2-azaspiro[4.5]dec-8-yl]-5-methylpyrazolo[1,5-a]pyrimidine-3-carboxamide], for which the figures for the IC50 (in assay [1]; against TNKS1) were 1.5 nM and 11 nM, respectively.

Take `Cc1ccnc2c(C(=O)N[C@H]3CC[C@@]4(CCN(c5ccc(F)cc5Cl)C4=O)CC3)cnn12` [Example 222, N-[(trans)-2-(2-chloro-4-fluorophenyl)-1-oxo-2-azaspiro[4.5]dec-8-yl]-7-methylpyrazolo[1,5-a]pyrimidine-3-carboxamide]: the IC50 in assay [1] turned out to be 2.1 nM; on TNKS1, 13 nM.

For the compound `Cc1cc(C(F)F)n2ncc(C(=O)N[C@H]3CC[C@@]4(CCN(c5ccc(F)cc5Cl)C4=O)CC3)c2n1` [Example 224, N-[(trans)-2-(2-chloro-4-fluorophenyl)-1-oxo-2-azaspiro[4.5]dec-8-yl]-7-(difluoromethyl)-5-methylpyrazolo[1,5-a]pyrimidine-3-carboxamide], the values for the half-maximal inhibitory concentration (IC50) (in assay [1]; against TNKS1) were 0.83 nM and 14 nM, respectively.

With `CC(C)(C)OC(=O)N1CCN(c2ccn3ncc(C(=O)N[C@H]4CC[C@@]5(CCN(c6ccc(F)cc6Cl)C5=O)CC4)c3n2)CC1` [Example 225, tert-butyl 4-(3-{[(trans)-2-(2-chloro-4-fluorophenyl)-1-oxo-2-azaspiro[4.5]dec-8-yl]carbamoyl}pyrazolo[1,5-a]pyrimidin-5-yl)piperazine-1-carboxylate], the IC50 amounted to 59 nM in assay [1] and 6 nM at TNKS1.

Regarding `O=C(N[C@H]1CC[C@@]2(CCN(c3ccc(F)cc3Cl)C2=O)CC1)c1cnn2ccc(N3CCNCC3)nc12` [Example 226, N-[(trans)-2-(2-chloro-4-fluorophenyl)-1-oxo-2-azaspiro[4.5]dec-8-yl]-5-(piperazin-1-yl)pyrazolo[1,5-a]pyrimidine-3-carboxamide hydrochloric acid salt], the IC50 in assay [1] turned out to be 32 nM; on TNKS1, 8.2 nM.

Take `O=C(N[C@H]1CC[C@@]2(CCN(c3ccc(F)cc3Cl)C2=O)CC1)c1cnn2ccc(N3CCCC3)nc12` [Example 232, N-[(trans)-2-(2-chloro-4-fluorophenyl)-1-oxo-2-azaspiro[4.5]dec-8-yl]-5-(pyrrolidin-1-yl)pyrazolo[1,5-a]pyrimidine-3-carboxamide]: the IC50 came to 6.4 nM in assay [1] and 8.5 nM against TNKS1.

Turning to `O=C(N[C@H]1CC[C@@]2(CCN(c3ccc(F)cc3Cl)C2=O)CC1)c1cnn2c(C(F)(F)F)ccnc12` [Example 233, N-[(trans)-2-(2-chloro-4-fluorophenyl)-1-oxo-2-azaspiro[4.5]dec-8-yl]-7-(trifluoromethyl)pyrazolo[1,5-a]pyrimidine-3-carboxamide], the values for the concentration for half-maximal inhibition (IC50) (in assay [1]; against TNKS1) were 9 nM and 71 nM, respectively.

As a reminder, the IC50 is the midpoint of a concentration-inhibition curve. Low values mean inhibition by little substance, high ones a need for much substance.
